T1: Solute carrier family 22 member 1 (Rattus norvegicus, UniProt Q63089)
T1 sequence (Q63089 whole entry): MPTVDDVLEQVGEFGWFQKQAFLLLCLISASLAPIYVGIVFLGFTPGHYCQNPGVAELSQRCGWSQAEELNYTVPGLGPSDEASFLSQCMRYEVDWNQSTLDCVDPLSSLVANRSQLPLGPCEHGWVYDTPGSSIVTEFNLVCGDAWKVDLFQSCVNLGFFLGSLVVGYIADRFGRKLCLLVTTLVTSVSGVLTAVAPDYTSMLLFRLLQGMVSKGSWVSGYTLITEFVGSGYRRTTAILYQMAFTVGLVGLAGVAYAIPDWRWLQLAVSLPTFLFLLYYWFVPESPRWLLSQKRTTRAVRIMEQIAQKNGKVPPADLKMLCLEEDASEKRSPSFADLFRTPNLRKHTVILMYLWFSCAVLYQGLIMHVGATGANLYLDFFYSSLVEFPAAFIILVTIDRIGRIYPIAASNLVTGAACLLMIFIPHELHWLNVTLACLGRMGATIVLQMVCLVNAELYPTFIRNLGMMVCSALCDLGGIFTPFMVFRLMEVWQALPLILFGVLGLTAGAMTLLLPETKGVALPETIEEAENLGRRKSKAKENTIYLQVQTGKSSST

B1: Solute carrier family 22 member 1 (Rattus norvegicus) (protein)
chain: T1 sequence (Q63089 whole entry)

Key:
[1] = molecular target: T1, Solute carrier family 22 member 1; test: TP_TRANSPORTER: uptake (electrogenesis) in Xenopus laevis oocytes; type: functional, cell-based; conditions: oocyte
[2] = substrate: CNC(=O)c1cccnc1; test: (§1) TP_TRANSPORTER: uptake in Xenopus laevis oocytes; type: functional, cell-based, Oocyte
[3] = substrate: C[n+]1ccc(-c2ccccc2)cc1; test: as §1; type: functional, cell-based, Oocyte
[4] = substrate: CC[N+](CC)(CC)CC; test: cells, lysate or membranes named

Molecule	Activity [1]	Km [2] [µM]	Km [3] [µM]	Km [4] [µM]
CC(=O)O[C@H]1C[C@@H]2CC[C@@H]3[C@H](CC[C@@]4(C)[C@H]3C[C@H]([N+]3(C)CCCCC3)[C@@H]4OC(C)=O)[C@@]2(C)C[C@@H]1[N+]1(C)CCCCC1 [PANCURONIUM]	substrate [+]	–	–	–
NCCCNCCCCNCCCN [SPERMINE]	substrate [+]	–	–	–
CC[n+]1c(CC2C=C(C)N=C(c3ccccc3)N2C)ccc2ccccc21.[Cl-] (configuration not stated) [Cyanine-863]	substrate [+]	–	–	–
NCCCCNCCCN [SPERMIDINE]	substrate [+]	–	–	–
B1	–	340	9.6	35

— ChEMBL document CHEMBL2074471, “Electrogenic properties and substrate specificity of the polyspecific rat cation transporter rOCT1” (J Biol Chem, 1996)
